Here are results for one compound from patent EP1096004B1, “Pro-fragrance compounds” (THE PROCTER & GAMBLE COMPANY, priority 1996, dated 1997).

This data set can be described thus: Pro-Fragrant Hydrolysis Test (hydrolysis half-life by UV/Vis spectroscopy). The class given is physicochemical. The settings on record: acid hydrolysis at pH 0 (1N HCl), 90/10 dioxane/water, 30°C. The protocol:
Hydrolysis half-life is the measurement used to determine the ease with which the pro-fragrance compound undergoes acid hydrolysis and thereby releases its fragrance component(s) upon exposure to acid conditions. […] Preferably, pro-fragrance of the invention has a half-life at pH 2 of less than 60 minutes. For granular detergents, the more reactive pro-fragrances, that is, those with half-life at […] of less than one minute, are most suitable, although those having a half-life of less than 60 minutes at pH 0 are also useful. […]
All measurements are carried out using a Hewlett Packard 8452 A Diode Array Spectrophotometer using quartz 1 cm path length cuvette cells. […] The pH's are measured using an Orion 230 A standardized with pH 4 and pH 7 buffers. […]
Pro-fragrance is weighed out in a 10.00 ml volumetric flask using an analytical balance (Mettler AE 200) Precision is 1/10 mg. […] Hydrolysis time is measured, starting upon addition of the acid. […] The absorbance of the pro-fragrance solution (At) is followed at a regular series of time intervals, and the cuvette is kept in the water-bath at the above-indicated temperature between measurements. […] The wavelength at which the hydrolysis is followed is chosen at the wavelength of the absorbance maximum of the parent aldehyde or ketone.
Reaction half-lifes are determined using conventional procedures. […]

Regarding `CC(C)=CCCC(C)=CC(OC/C=C(\C)CCC=C(C)C)OC/C=C(\C)CCC=C(C)C` [Example 1, Digeranyl Citral Acetal], the “t 1/2 at 0 pH” value was “less than one”.
